# Reference: patent publication US6228877A, “Substituted pyrroles” (Hoffmann-La Roche Inc., priority 1998, dated 2001)
# Test system: epithelial breast carcinoma cell line (MDAMB-435)
# Test: effect of compounds on growth of epithelial breast carcinoma cell line MDAMB-435 (MTT, 5 days)
# Assay type: cell-based
# Details: Homo sapiens, MDA-MB-435, 120 h, MDAMB-435 cells, 5 days post drug addition, 0.1% DMSO
# Description: The epithelial breast carcinoma cell line (MDAMB-435) was purchased from ATCC (American Type Cell Culture Collection) and was grown in culture in medium as recommended by ATCC. For analysis of the effect of various compounds on growth of these cells, the cells were plated at a concentration of 1500 cells/well in a 96 well tissue culture plate ("test plate). The day after the cells were plated, the compounds to be analyzed were dissolved in 100% DMSO (dimethyl sulfoxide) to yield at 10 mM stock solution. Each compound was diluted in H2 O to 1 mM and was added to triplicate wells in the first row of a 96 well master plate which contains medium to yield a final concentration of 40 μM. The compounds were then serially diluted in medium in the "master plate". The diluted compound(s) were then transferred to test plates containing cells. A row of vehicle "control cells" received DMSO. The final concentration of DMSO in each well was 0.1%. 5 days post drug addition, the plate was analyzed as follows:
# MTT (3-(4-5 methyl thiazole-2-yl)-2,5-diphenyl tetrazolium bromide; thiazolyl blue) was added to each well to yield a final concentration of 1 mg/ml. The plate was then incubated at 37° C. for 21/2-3 hours. The MTT containing medium was then removed and 50 μl of 100% ethanol was added to each well to dissolve the formazan. The absorbences were then read using an automated plate reader (Bio-tek microplate reader).
# IC50 's were calculated using the Reed and Munsch equation, see Am. J. Hygiene Vol. 27 pgs. 493-497, 1938.
row,SMILES,IC50 [nM]
1,"COc1ccc2c(C3=C(c4cn(C)c5cc(C#N)ccc45)C(=O)NC3=O)cn(C)c2c1 [H H CN OCH3, 3-[4-(6-methoxy-1-methyl-1H-indol-3-yl)-2,5-dioxo-2,5-dihydro-1H-pyrrole-3-yl]-1-methyl-indol-6-carbonitrile]",5
2,"COc1ccc2c(C3=C(c4cn(C)c5cc(N=[N+]=[N-])ccc45)C(=O)NC3=O)cn(C)c2c1 [H H N3 CH3 O, 3-(6-Azido-1-methyl-1H-indol-3-yl)-4-(6-methoxy-1-methyl-1H-indol-3-yl)-pyrrole-2,5,-dione]",70
3,"Cn1cc(C2=C(c3cn(C)c4cc([N+](=O)[O-])ccc34)C(=O)NC2=O)c2cc([N+](=O)[O-])ccc21 [H NO2 H NO2, 3-(1-methyl-5-nitro-1H-indol-3-yl)-4-(1-methyl-6-nitro-1H-indol-3-yl)-pyrrole-2,5-dione]",830
4,"COc1ccc2c(C3=C(c4cn(C)c5cc(N)ccc45)C(=O)NC3=O)cn(C)c2c1 [H H NH2 CH3 O, 3-(6-Amino-1-methyl-1H-indol-3-yl)-4-(6-methoxy-1-methyl-1H-indol-3-yl)-pyrrole-2,5-dione]",15
5,"CCOc1ccc2c(C3=C(c4cn(C)c5cccc(F)c45)C(=O)NC3=O)cn(C)c2c1 [F H H EtO, 3-(4-Fluoro-1-methyl-1H-indol-3-yl)-4-(6-ethoxy-1-methyl-1H-indol-3-yl)-pyrrole-2,5-dione]",32
6,COc1ccc2c(C3=C(c4cn(C)c5cc(NC=O)ccc45)C(=O)NC3=O)cn(C)c2c1 [H H CHONH CH3 O],10
7,"Cn1cc(C2=C(c3cn(C)c4cc([N+](=O)[O-])ccc34)C(=O)NC2=O)c2ccc(C#N)cc21 [H H CN NO2, 1-methyl-3-[4-(1-methyl-6-nitro-1H-indol-3-yl)-2,5-dioxo-2,5-dihydro-1H-pyrrol-3-yl]1H-indole-6-carbonitrile]",50
8,"CCOc1ccc2c(C3=C(c4cn(C)c5cccc(Br)c45)C(=O)NC3=O)cn(C)c2c1 [Br H H EtO, 3-(4-Bromo-1-methyl-1H-indol-3-yl)-4-(6-ethoxy-1-methyl-1H-indol-3-yl)-pyrrole-2,5-dione]",200
9,"COc1ccc2c(C3=C(c4cn(C)c5cc([N+](=O)[O-])ccc45)C(=O)NC3=O)cn(C)c2c1 [H H OCH3 NO2, 3-(6-methoxy-1-methyl-1H-indol-3-yl)-4-(1-methyl-6-nitro-1H-indol-3-yl)-pyrrole-2,5-dione]",7
10,"COc1ccc2c(C3=C(c4cn(C)c5cccc(F)c45)C(=O)NC3=O)cn(C)c2c1 [F H H CH3 O, 3-(4-Fluoro-1-methyl-1H-indol-3-yl)-4-(6-methoxy-1-methyl-1H-indol-3-yl)-pyrrole-2,5-dione]",200
11,"Cc1ccc2c(C3=C(c4cn(C)c5ccc(Cl)cc45)C(=O)NC3=O)cn(C)c2c1 [H Cl H CH3, 3-(5-Chloro-1-methyl-1H-indol-3-yl)-4-(1,6-dimethyl-1H-indol-3-yl)-pyrrole-2,5-dione]",400
12,"COc1ccc2c(c1)c(C1=C(c3cn(C)c4cc(Cl)ccc34)C(=O)NC1=O)cn2C [H CH3 O H Cl, 3-(6-Chloro-1-methyl-1H-indol-3-yl)-4-(5-methoxy-1-methyl-1H-indol-3-yl)-pyrrole-2,5-dione]",200
13,"COc1ccc2c(C3=C(c4cn(C)c5cc(F)ccc45)C(=O)NC3=O)cn(C)c2c1 [H H F OCH3, 3-(6-fluoro-1-methyl-1H-indol-3-yl)-4-(6-methoxy-1-methyl-1H-indol-3-yl)-pyrrole-2,5-dione]",20
14,"COc1cccc2c1c(C1=C(c3cn(C)c4cc([N+](=O)[O-])ccc34)C(=O)NC1=O)cn2C [CH3 O H H NO2, 3-(4-Methoxy-1-methyl-1H-indol-3-yl)-4-(1-methyl-6-nitro-1H-indol-3-yl)-pyrrole-2,5-dione]",400
15,"Cn1cc(C2=C(c3cn(C)c4cc(C#N)ccc34)C(=O)NC2=O)c2ccc(N)cc21 [H H NH2 CN, 3-[4-(6-Amino-1-methyl-1H-indol-3-yl)-2,5-dioxo-2,5-dihydro-1H-pyrrol-3-yl]-1-methyl-1H-indole-6-carbonitrile]",< 10
16,"CSc1ccc2c(C3=C(c4cn(C)c5cc([N+](=O)[O-])ccc45)C(=O)NC3=O)cn(C)c2c1 [H H NO2 SCH3, 3-(1-Methyl-6-methylsulfanyl-1H-indol-3-yl)-4-(1-methyl-6-nitro-1H-indol-3-yl)-pyrrole-2,5-dione]",9
17,"COc1ccc2c(C3=C(c4cn(C)c5cc(NC(C)=O)ccc45)C(=O)NC3=O)cn(C)c2c1 [H H CH3 CONH CH3 O, N-{3-[4-(6-Methoxy-1-methyl-1H-indol-3-yl)-2,5-dioxo-2,5-dihydro-1H-pyrrol-3-yl]-1-methyl-1H-indol-6-yl}-acetamide]",70

row,SMILES,IC50 [nM]
1,"COc1ccc2c(c1)c(C1=C(c3cn(C)c4cc(SC)ccc34)C(=O)NC1=O)cn2C [H CH3 O H CH3 S, 3-(5-Methoxy-1-methyl-11H-indol-3-yl)-4-(1-methyl-6-methylsulfanyl-1H-indol-3-yl)-pyrrole-2,5-dione]",200
2,"COc1ccc2c(C3=C(c4cn(C)c5cc(Cl)ccc45)C(=O)NC3=O)cn(C)c2c1 [H H Cl OCH3, 3-(6-chloro-1-methyl-1H-indol-3-yl)-4-(6-methoxy-1-methyl-1H-indol-3-yl)-pyrrole-2,5-dione]",7
3,"Cn1cc(C2=C(c3cn(C)c4cc([N+](=O)[O-])ccc34)C(=O)NC2=O)c2ccc(N)cc21 [H H NH2 NO2, 3-(6-Amino-1-methyl-1H-indol-3-yl)-4-(1-methyl-6-nitro-1H-indol-3-yl)-pyrrole-2,5-dione]",< 10
4,"CCOc1ccc2c(C3=C(c4cn(C)c5ccc(OC)cc45)C(=O)NC3=O)cn(C)c2c1 [H CH3 O H EtO, 3-(6-Ethoxy-1-methyl-1H-indol-3-yl)-4-(5-methoxy-1-methyl-1H-indol-3-yl)-pyrrole-2,5-dione]",70
5,"Cn1cc(C2=C(c3cn(C)c4cc(Br)ccc34)C(=O)NC2=O)c2ccc(N)cc21 [H H NH2 Br, 3-(6-Amino-1-methyl-1H-indol-3-yl)-4-(6-bromo-1-methyl-1H-indol-3-yl)-pyrrole-2,5-dione]",4
6,"Cn1cc(C2=C(c3cn(C)c4cc([N+](=O)[O-])ccc34)C(=O)NC2=O)c2ccc(Br)cc21 [H H Br NO2, 3-(6-Bromo-1-methyl-1H-indol-3-yl)-4-(1-methyl-6-nitro-1H-indol-3-yl)-pyrrole-2,5-dione]",70
7,"Cn1cc(C2=C(c3cn(C)c4cc([N+](=O)[O-])ccc34)C(=O)NC2=O)c2ccc(F)cc21 [H H NO2 F, 3-(6-fluoro-1-methyl-1H-indol-3-yl)-4-(1-methyl-6-nitro-1H-indol-3-yl)-pyrrole-2,5-dione]",70
8,"COC(=O)c1ccc2c(C3=C(c4cn(C)c5cc([N+](=O)[O-])ccc45)C(=O)NC3=O)cn(C)c2c1 [H H CO2 CH3 NO2, 1-methyl-3[4-(1-methyl-6-nitro-1H-indol-3-yl)-2,5-dioxo-2,5-dihydro-1H-pyrrole-3-yl]-1H-indole-6-carboxylic acid methyl ester]",7
9,"Cn1cc(C2=C(c3cn(C)c4cc([N+](=O)[O-])ccc34)C(=O)NC2=O)c2ccc(OCc3ccccc3)cc21 [H H NO2 Obenzyl, 3-(6-benzyloxy-1-methyl-1H-indol-3-yl)-4-(1-methyl-6-nitro-1H-indol-3-yl)-pyrrole-2,5-dione]",90
10,"Cc1ccc2c(c1)c(C1=C(c3cn(C)c4cc([N+](=O)[O-])ccc34)C(=O)NC1=O)cn2C [H CH3 H NO2, 3-(1,5-Dimethyl-1H-indol-3-yl)-4-(1-methyl-6-nitro-1H-indol-3-yl)-pyrrole-2,5-dione]",130
11,CC(=O)Nc1ccc2c(C3=C(c4cn(C)c5cc([N+](=O)[O-])ccc45)C(=O)NC3=O)cn(C)c2c1 [H H CH3 CONH NO2],20
12,"COc1ccc2c(C3=C(c4cn(C)c5cccc(OC)c45)C(=O)NC3=O)cn(C)c2c1 [CH3 O H H CH3 O, 3-(6-Methoxy-1-methyl-1H-indol-3-yl)-4-(4-methoxy-1-methyl-1H-indol-3-yl)-pyrrole-2,5-dione]",70
13,"Cn1cc(C2=C(c3cn(C)c4cc(N)ccc34)C(=O)NC2=O)c2ccc(N)cc21 [H H NH2 NH2, 3,4-bis-(1-methyl-6-amino-1H-indol-3-yl)-pyrrole-2,5-dione]",700
14,"Cn1cc(C2=C(c3cn(C)c4cccc(F)c34)C(=O)NC2=O)c2ccc([N+](=O)[O-])cc21 [F H H NO2, 3-(4-Fluoro-1-methyl-1H-indol-3-yl)-4-(1-methyl-6-nitro-1H-indol-3-yl)-pyrrole-2,5-dione]",50
15,"CNc1ccc2c(C3=C(c4cn(C)c5cc(OC)ccc45)C(=O)NC3=O)cn(C)c2c1 [H H CH3 NH CH3 O, 3-(6-Methoxy-1-methyl-1H-indol-3-yl)-4-(1-methyl-6-methyl-amino-1H-indol-3-yl)-pyrrole-2,5-dione]",< 10
16,"Cn1cc(C2=C(c3cn(C)c4cc(F)ccc34)C(=O)NC2=O)c2ccc(N)cc21 [H H NH2 F, 3-(6-Amino-1-methyl-1H-indol-3-yl)-4-(6-fluoro-1-methyl-1H-indol-3-yl)-pyrrole-2,5-dione]",42
